What was measured:
Experiment in all cases: relative viability (nuclei count vs DMSO), 5 days (fraction); higher = more cells survive
[1] = compound: COCC[n+]1c2c(n(Cc3cnccn3)c1C)C(=O)c1ccccc1C2=O [YM155] + O=C(c1cc(Cc2n[nH]c(=O)c3ccccc23)ccc1F)N1CCN(C(=O)C2CC2)CC1 [Olaparib] (partner 8 µM)
Outline: (§1)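 Lung cancer cell lines were pin-tool dosed in 1536-well plates on the day after seeding, with either a lone drug or a fixed anchor-drug dose plus five library-drug doses (not always all listed) in √10 steps. Nuclei were counted on 4× images after 5 days. Relative viability is the ratio of treated-well to vehicle-well nuclei counts, with each value a median of duplicate plates.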

[2] = compound: COCC[n+]1c2c(n(Cc3cnccn3)c1C)C(=O)c1ccccc1C2=O [YM155] + CS(=O)(=O)N1CCN(Cc2cc3nc(-c4cccc5[nH]ncc45)nc(N4CCOCC4)c3s2)CC1 [Pictilisib] (partner 1 µM)
Outline: as §1

[3] = compound: COCC[n+]1c2c(n(Cc3cnccn3)c1C)C(=O)c1ccccc1C2=O [YM155] + CC(=O)c1c(C)c2cnc(Nc3ccc(N4CCNCC4)cn3)nc2n(C2CCCC2)c1=O [Palbociclib] (partner 0.5 µM)
Outline: as §1

[4] = compound: CC(C)(C)c1cc(NC(=O)Nc2ccc(-c3cn4c(n3)sc3cc(OCCN5CCOCC5)ccc34)cc2)no1 [Quizartinib] + CC(=O)c1c(C)c2cnc(Nc3ccc(N4CCNCC4)cn3)nc2n(C2CCCC2)c1=O [Palbociclib] (partner 0.5 µM)
Outline: as §1

Cell Line	relative viability ([1]; first compound 0.002 µM)	relative viability ([1]; first compound 0.006325 µM)	relative viability ([1]; first compound 0.02 µM)	relative viability ([1]; first compound 0.06325 µM)	relative viability ([2]; first compound 0.002 µM)	relative viability ([2]; first compound 0.006325 µM)	relative viability ([2]; first compound 0.02 µM)	relative viability ([2]; first compound 0.06325 µM)	relative viability ([3]; first compound 0.002 µM)	relative viability ([3]; first compound 0.006325 µM)	relative viability ([3]; first compound 0.02 µM)	relative viability ([3]; first compound 0.06325 µM)	relative viability ([4]; first compound 0.001 µM)	relative viability ([4]; first compound 0.003162 µM)	relative viability ([4]; first compound 0.01 µM)	relative viability ([4]; first compound 0.03162 µM)	relative viability ([4]; first compound 0.1 µM)
NCI-H650	0.429	0.345	0.409	0.377	0.88	0.843	0.953	0.683	0.314	0.292	0.383	0.31	0.355	0.309	0.361	0.336	0.355
NCI-H661	0.727	0.686	0.739	0.41	0.385	0.422	0.492	0.453	0.405	0.401	0.418	0.327	0.369	0.348	0.391	0.384	0.339
NCI-H727	0.775	0.722	0.66	0.729	0.397	0.533	0.446	0.375	0.639	0.694	0.615	0.705	0.677	0.684	0.625	0.673	0.765
NCI-H838	0.711	0.787	0.761	0.416	0.386	0.521	0.536	0.299	0.191	0.237	0.226	0.198	0.212	0.244	0.205	0.217	0.179
NCI-H1355	0.751	0.731	0.8	0.725	0.403	0.484	0.462	0.514	0.4	0.39	0.4	0.394	0.379	0.378	0.415	0.36	0.363
NCI-H1395	0.489	0.457	0.46	0.456	0.587	0.546	0.622	0.673	0.565	0.613	0.598	0.627	0.549	0.573	0.668	0.591	0.598
NCI-H1437	0.618	0.596	0.599	0.387	0.417	0.404	0.468	0.507	0.245	0.329	0.309	0.298	0.298	0.288	0.32	0.299	0.261
NCI-H1650	0.781	0.699	0.491	0.194	0.498	0.573	0.532	0.276	0.229	0.347	0.286	0.216	0.386	0.329	0.345		0.321
NCI-H1651	0.189	0.19	0.206	0.173	0.542	0.589	0.556	0.473	0.548	0.519	0.494	0.53	0.456	0.479	0.54	0.517	0.566
NCI-H1666	0.754	0.741	0.769	0.679	0.455		0.404	0.484	0.616	0.701	0.651	0.611	0.618	0.66	0.683	0.638	0.637
NCI-H1734	0.53	0.607	0.656	0.63	0.414	0.454	0.491	0.533	0.362	0.313	0.374	0.345	0.277	0.338	0.349	0.341	0.347
NCI-H1755	0.848	0.853	0.855	0.913	0.396	0.437	0.428	0.513	0.439	0.478	0.456	0.453	0.418	0.451	0.471	0.446	0.41
NCI-H1792	0.382	0.253	0.502	0.454	0.331	0.289	0.318	0.267	0.628	0.685	0.638	0.665		0.654	0.702	0.617	0.66
NCI-H1793	0.847	0.824	0.91	0.575		0.303	0.318	0.211	0.292	0.324	0.323	0.304	0.331	0.277	0.33	0.329	0.34
NCI-H1915	0.26	0.259	0.278	0.254	0.904	0.834	0.88	0.667	0.494	0.533	0.539	0.552	0.507	0.433	0.482	0.552	0.474
NCI-H1944	0.401	0.364	0.404	0.406	0.358	0.339	0.363	0.379	0.337	0.296	0.328	0.325	0.345	0.306	0.293	0.35	0.294
NCI-H1975	0.717	0.756	0.767	0.189	0.273	0.268	0.256	0.224	0.463	0.531	0.643	0.259	0.588	0.605	0.599	0.552	0.538
NCI-H1993	0.765	1.01	0.79	0.465	0.697	0.733	0.798	0.789	0.557	0.657	0.554	0.43	0.673	0.58	0.67	0.633	0.825

Cell Line	relative viability ([1]; first compound 0.002 µM)	relative viability ([1]; first compound 0.006325 µM)	relative viability ([1]; first compound 0.02 µM)	relative viability ([1]; first compound 0.06325 µM)	relative viability ([2]; first compound 0.002 µM)	relative viability ([2]; first compound 0.006325 µM)	relative viability ([2]; first compound 0.02 µM)	relative viability ([2]; first compound 0.06325 µM)	relative viability ([3]; first compound 0.002 µM)	relative viability ([3]; first compound 0.006325 µM)	relative viability ([3]; first compound 0.02 µM)	relative viability ([3]; first compound 0.06325 µM)	relative viability ([4]; first compound 0.001 µM)	relative viability ([4]; first compound 0.003162 µM)	relative viability ([4]; first compound 0.01 µM)	relative viability ([4]; first compound 0.03162 µM)	relative viability ([4]; first compound 0.1 µM)
NCI-H2009	0.66	0.673	0.582	0.337	0.8	0.796	0.852	0.57	0.215	0.189	0.318	0.166	0.202	0.237	0.273	0.191	0.226
NCI-H2023	0.558	0.468	0.379	0.325	0.237	0.23	0.25	0.112	0.384	0.423	0.21	0.105	0.298	0.312	0.467		0.279
NCI-H2085	0.737	0.755	0.805	0.516	0.435	0.38	0.534	0.429	0.436	0.441	0.469	0.375	0.407	0.486	0.444	0.453	0.388
NCI-H2087	0.547	0.589	0.586	0.49	0.868	0.762	0.931	0.642	0.207	0.247	0.256	0.208	0.233	0.225	0.316	0.218	0.229
NCI-H2126	0.884	0.921	0.935	0.946	0.427	0.525	0.466	0.54	0.354	0.369	0.369	0.369	0.359	0.347	0.347	0.339	0.346
NCI-H2170	0.605	0.583	0.668	0.62	0.296	0.357	0.349	0.329	0.418	0.473	0.389	0.376	0.385	0.365	0.392	0.367	0.358
NCI-H2228	0.67	0.597	0.809	0.581	0.338	0.278	0.384	0.388	0.573	0.69	0.752	0.714	0.695	0.936	0.773	1.03	0.76
NCI-H2347	0.536	0.489	0.618	0.498	0.574	1.03	0.829	0.633	0.422	0.399	0.389	0.37	0.405	0.43	0.379	0.428	0.434
NCI-H2405	0.753	0.771	0.637	0.397	0.407	0.316	0.395	0.312	0.515	0.508	0.424	0.269	0.499	0.519	0.584	0.528	0.556
NCI-H3122	0.623	0.74	0.679	0.627	0.601	0.615	0.606	0.506	0.184	0.178	0.218	0.171	0.176	0.184	0.193	0.162	0.235
PC-3 [JPC-3]	1.12	1.19	1.1	0.796	0.651	0.792	0.801	0.759	0.526	0.565	0.571	0.52	0.531	0.545	0.598	0.588	0.504
PC-14	0.292	0.205	0.281	0.155	0.648	0.717	0.693	0.536	0.477	0.447	0.476	0.278	0.485	0.457	0.488		0.477
RERF-LC-KJ	0.825	0.801	0.95	0.858	0.527	0.51	0.55	0.593	1.09	1.1	1.02	0.985	1.05	1.05	1.17	0.984	1.02
SK-LU-1	0.422	0.442	0.516	0.327	0.606	0.496	0.483	0.545	0.405	0.495	0.404	0.412	0.366	0.361	0.443	0.381	0.388
SK-MES-1	0.707	0.574	0.258	0.189	0.395	0.359	0.377	0.24	0.312	0.357	0.225	0.191	0.338	0.286	0.362	0.299	0.292
SW 1573	0.5	0.409	0.21	0.0835	0.484	0.465	0.426	0.0949	0.415	0.314	0.126	0.0609	0.367	0.367	0.493		0.434
UMC-11	0.389	0.374	0.595	0.386	0.68	0.863	0.824	0.787	0.327	0.356	0.336	0.33		0.333	0.339	0.321	0.317

Source: the supplement of paper PMC10307832
